Measurements taken from ChEMBL document CHEMBL4831528, “Discovery of Novel Pterostilbene-Based Derivatives as Potent and Orally Active NLRP3 Inflammasome Inhibitors with Inflammatory Activity for Colitis” (J Med Chem, 2021).
Active and inactive are the calls of the source. The calls are words filed in the database; no cut-off is given here.

Assays:
[1] = molecular target: NACHT, LRR and PYD domains-containing protein 3 (Mus musculus) (UniProt Q8R4B8); experiment: (§1) Inhibition of NLRP3 inflammasome activation in LPS-stimulated mouse J774A.1 cells assessed as inhibition of cell pyrolysis at 20 uM incubated for 1 hr followed by ATP addition and measured after 30 mins by Hoechst 33342/propidium iodide staining based high content screening method relative to control; conditions: J774.A1, time 1.5 hrs
NACHT, LRR and PYD domains-containing protein 3 (Mus musculus), sequence (Q8R4B8 whole entry, the tested form may be a part): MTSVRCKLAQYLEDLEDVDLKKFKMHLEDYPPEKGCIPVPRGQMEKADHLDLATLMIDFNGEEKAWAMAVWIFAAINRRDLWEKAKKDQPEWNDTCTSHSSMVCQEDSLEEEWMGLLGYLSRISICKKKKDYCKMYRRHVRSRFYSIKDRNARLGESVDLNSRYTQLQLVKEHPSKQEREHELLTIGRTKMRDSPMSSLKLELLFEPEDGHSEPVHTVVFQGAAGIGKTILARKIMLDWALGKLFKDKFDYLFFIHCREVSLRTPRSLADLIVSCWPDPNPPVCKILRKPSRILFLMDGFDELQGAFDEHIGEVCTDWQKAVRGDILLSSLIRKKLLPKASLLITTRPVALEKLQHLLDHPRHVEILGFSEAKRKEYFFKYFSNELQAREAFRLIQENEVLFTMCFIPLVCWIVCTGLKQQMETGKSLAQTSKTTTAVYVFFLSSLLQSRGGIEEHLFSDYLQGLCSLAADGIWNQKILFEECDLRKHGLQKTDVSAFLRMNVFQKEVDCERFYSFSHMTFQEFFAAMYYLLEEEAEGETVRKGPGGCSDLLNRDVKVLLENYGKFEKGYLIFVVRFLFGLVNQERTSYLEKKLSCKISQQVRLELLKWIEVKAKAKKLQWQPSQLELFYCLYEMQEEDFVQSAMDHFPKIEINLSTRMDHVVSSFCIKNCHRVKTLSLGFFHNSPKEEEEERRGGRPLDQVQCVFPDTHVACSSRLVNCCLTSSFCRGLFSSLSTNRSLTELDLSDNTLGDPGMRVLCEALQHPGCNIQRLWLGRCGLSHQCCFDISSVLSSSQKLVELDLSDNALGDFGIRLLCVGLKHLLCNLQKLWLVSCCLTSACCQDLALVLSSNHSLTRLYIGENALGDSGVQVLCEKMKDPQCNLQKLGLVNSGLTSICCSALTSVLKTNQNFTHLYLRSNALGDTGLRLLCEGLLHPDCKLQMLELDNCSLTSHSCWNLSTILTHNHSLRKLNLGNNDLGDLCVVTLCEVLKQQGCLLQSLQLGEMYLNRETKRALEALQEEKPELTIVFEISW

[2] = tested on: L02; experiment: Cytotoxicity against human L-02 cells incubated for 24 hrs by MTT assay; assay type: cell-based; conditions: L02, 24 h
[3] = molecular target: NACHT, LRR and PYD domains-containing protein 3 (Mus musculus) (UniProt Q8R4B8); experiment: as §1, with “10” for “20”; conditions: J774.A1, time 1.5 hrs
[4] = molecular target: NACHT, LRR and PYD domains-containing protein 3 (Mus musculus, UniProt Q8R4B8); experiment: Inhibition of NLRP3 inflammasome activation in LPS-stimulated mouse bone marrow-derived macrophages assessed as reduction in IL-1beta secretion preincubated for 30 mins followed by nigericin addition and measured after 30 mins by ELISA; assay type: tissue-based, Macrophage
NACHT, LRR and PYD domains-containing protein 3, sequence (Q8R4B8 whole entry, the tested form may be a part): as above

[5] = tested on: Mus musculus; experiment: Anti-inflammatory activity in C57BL/6 mouse DSS-induced acute ulcerative colitis assessed as reduction in disease index at 10 to 20 mg/kg, ig administered for 7 days; assay type: functional, organism-based; conditions: dose 10-20 mg/kg, time 7.0 day
[6] = tested on: Mus musculus; experiment: In vivo inhibition of NLRP3 inflammasome activation in C57BL/6 mouse assessed as reduction in MPO activity at 10 mg/kg, ig administered for 7 days by ELISA; assay type: functional, organism-based; conditions: time 7.0 day
[7] = tested on: Mus musculus; experiment: In vivo inhibition of NLRP3 inflammasome activation in C57BL/6 mouse assessed as reduction in MPO activity at 20 mg/kg, ig administered for 7 days by ELISA; assay type: functional, organism-based; conditions: time 7.0 day
[8] = tested on: Mus musculus; experiment: Protection against DSS-induced acute ulcerative colitis in C57BL/6 mouse assessed as reduction in adhesion of colon at 20 mg/kg, ig administered for 7 days; assay type: functional, organism-based; conditions: time 7.0 day
[9] = Toxicity in C57BL/6 mouse assessed as effect on diet at 10 to 20 mg/kg, ig administered for 28 days; assay type: organism-based; conditions: in vivo, po, 672 h, dose 10-20 mg/kg, time 28 day
[10] = Toxicity in C57BL/6 mouse assessed as effect on activity at 10 to 20 mg/kg, ig administered for 28 days; assay type: organism-based; conditions: in vivo, po, 672 h, dose 10-20 mg/kg, time 28 day
[11] = Toxicity in C57BL/6 mouse assessed as effect on fur at 10 to 20 mg/kg, ig administered for 28 days; assay type: organism-based; conditions: in vivo, po, 672 h, dose 10-20 mg/kg, time 28 day
[12] = Toxicity in C57BL/6 mouse assessed as effect on spirit at 10 to 20 mg/kg, ig administered for 28 days; assay type: organism-based; conditions: in vivo, po, 672 h, dose 10-20 mg/kg, time 28 day
[13] = Toxicity in C57BL/6 mouse assessed as reduction in survival rate at 20 mg/kg, ig administered for 28 days; assay type: organism-based; conditions: in vivo, po, 672 h, time 28 day

`COc1cc(/C=C/c2ccc(N)cc2)c(/C=C/[N+](=O)[O-])c(OC)c1` gave an inhibition [1] of 75.3%, an IC50 [2] of 85.1 µM and an inhibition [3] of 54.7%. For the same molecule, the IC50 [4] was 1370 nM, the Activity [5] was “Active” and the inhibition [6] was “Active”. The inhibition [7] was “inactive”, the Activity [8] was “Active” and the Activity [9] was “Toxic”. The Activity [10] was “Toxic”, the Activity [11] was “Toxic” and the Activity [12] was “Toxic”. The Activity [13] was “Toxic”.
